From patent publication US10329309B2, “3-(3H-imidazo[4,5-B]pyridin-2-yl)-1H-pyrazolo[4,3-B]pyridines and therapeutic uses thereof” (Samumed, LLC, priority 2015, dated 2019) come the findings set out here.

The test system of test [1] is Wnt activity (Sp5-Luc reporter, SW480 colon carcinoma cells). Kind of test: Screening assay for Wnt activity: Sp5-Luc reporter gene assay in SW480 cells. Format: cell-based. The conditions noted are these: Homo sapiens; for inhibition at 10 µM: 10 μM compound, read-out: percent inhibition at 10 μM (given for EC50 of >10 μM); for EC50: overnight incubation, 10-point dose-response from 10 μM. The procedure, abridged:
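SW480 cells stably carrying Sp5-Luc reporter (eight TCF/LEF sites) plated at 4,000/well in 1% FBS medium with compound (10-point 1:3 series from 10 μM, 0.1% DMSO) overnight at 37 °C. BrightGlo luminescence normalized to DMSO; EC50 by four-parameter fit, else % inhibition at 10 μM.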

The test system of test [2] is primary human mesenchymal stem cells (hMSCs). Put plainly: Induction of chondrogenesis in primary human mesenchymal stem cells (nodule imaging, Rhodamine B/Nile Red). The conditions noted are these: hMSC chondrogenesis; for Emax: TGF-β3 as positive control, read-out: Max. Activity as % TGF-β3 activity; for EC50: concentration required to induce 50% levels of chondrogenesis vs TGF-β3, read-out: Conc (nM) of 50% TGF-β3 activity. The format is cell-based. The procedure:
Representative compounds were screened using primary human mesenchymal stem cells (hMSCs) to determine their ability to induce chondrogenesis (process by which cartilage is developed).
Primary human mesenchymal stem cells (hMSCs) were purchased from Lonza (Walkersville, Md.) and expanded in Mesenchymal Stem Cell Growth Media (Lonza). Cells between passage 3 and 6 were used for the experiments.
Each compound was dissolved in DMSO as a 10 mM stock and used to prepare compound source plates. For the 96 well assay, serial dilution (1:3, 6-point dose-response curves from 2700 nM to 10 nM) and compound transfer was performed using the ECHO 550 (Labcyte, Sunnyvale, Calif.) into 96-well clear bottom assay plates (Greiner Bio-One) with appropriate DMSO backfill for a final DMSO concentration of 0.03%. hMSCs were plated at 20,000 cells/well in 250 μL/well Incomplete Chondrogenic Induction Medium (Lonza; DMEM, dexamethasone, ascorbate, insulin-transferrin-selenium [ITS supplement], gentamycin-amphotericin [GA-1000], sodium pyruvate, proline and L-glutamine). TGF-−3 (10 ng/mL) was used as a positive control for differentiation while negative control wells were treated with 75 nL DMSO for normalization and calculating EC50 values. For the 384 well assay, serial dilution (1:3, 8-point dose-response curves from 5000 nM to 2.2 nM) and compound transfer was performed using the ECHO 550 (Labcyte, Sunnyvale, Calif.) into 384-well clear bottom assay plates (Greiner Bio-One) with appropriate DMSO backfill for a final DMSO concentration of 0.03%. hMSCs were plated at 8,000 cells/well in 80 μL/well Incomplete Chondrogenic Induction Medium (Lonza; DMEM, dexamethasone, ascorbate, insulin-transferrin-selenium [ITS supplement], gentamycin-amphotericin [GA-1000], sodium pyruvate, proline and L-glutamine). TGF-β3 (10 ng/mL) was used as a positive control for differentiation while negative control wells were treated with 25 nL DMSO for normalization and calculating EC50 values. Cells were incubated at 37° C. and 5% CO2 for 6 days. To image chondrogenic nodules, the cells were fixed using 4% formaldehyde (Electron Microscopy Sciences), and stained with 2 μg/mL Rhodamine B (Sigma-Aldrich) and 20 μM Nile Red (Sigma-Aldrich) [Johnson K., et. al, A Stem Cell-Based Approach to Cartilage Repair, Science, (2012), 336(6082), 717-721]. The nodules imaged (25 images per well for 96 well plates and 9 images per well for 384 well plates at 10× magnification) by excitation at 531 nm and emission at 625 nm and quantified using the CellInsight CX5 (Thermo Scientific). Area of nodules in each well was normalized to the average of 3 DMSO treated wells on the same plate using Excel (Microsoft Inc.). The normalized averages (fold change over DMSO) of 2 or 3 replicate wells for each compound concentration were calculated. Due to solubility limitations of some of the compounds, curve fitting was incomplete leading to inaccurate EC50 determinations.
Using TGF-β3 as a positive control, the concentration of representative compounds required to induce 50% levels of chondrogenesis is reported. In addition, the maximum activity of each compound and the respective dose that each compound reached maximum chondrogenesis activity is reported.

As to `CCCCC(=O)Nc1cncc(-c2ccc3[nH]nc(-c4nc5c(-c6ccccn6)ccnc5[nH]4)c3n2)c1` [Compound 159, N-(5-(3-(7-(pyridin-2-yl)-3H-imidazo[4,5-b]pyridin-2-yl)-1H-pyrazolo[4,3-b]pyridin-5-yl)pyridin-3-yl)pentanamide], in test [1], the inhibition at 10 µM was determined as 12.6% and the EC50 is more than 10 µM. Moreover, in test [2], the Emax was 60% and the EC50 is 100 nM.

With `CCC(=O)Nc1cncc(-c2ccc3[nH]nc(-c4nc5c(N6CCCCC6)ccnc5[nH]4)c3n2)c1` [Compound 169, N-(5-(3-(7-(piperidin-1-yl)-3H-imidazo[4,5-b]pyridin-2-yl)-1H-pyrazolo[4,3-b]pyridin-5-yl)pyridin-3-yl)propionamide], in test [1], the inhibition at 10 µM stood at 44.2% and the EC50 is more than 10 µM. Moreover, the Emax in test [2] is 38%.

Consider `CN(C)c1cncc(-c2ccc3[nH]nc(-c4nc5c(N6CCCCC6)ccnc5[nH]4)c3n2)c1` [Compound 175, N,N-dimethyl-5-(3-(7-(piperidin-1-yl)-3H-imidazo[4,5-b]pyridin-2-yl)-1H-pyrazolo [4,3-b]pyridin-5-yl)pyridin-3-amine], for which, in test [1], the inhibition at 10 µM stood at 0% and the EC50 is more than 10 µM. Moreover, the Emax in test [2] stood at 42%.

For the compound `CN(C)Cc1cncc(-c2ccc3[nH]nc(-c4nc5c(N6CCCCC6)ccnc5[nH]4)c3n2)c1` [Compound 181, N,N-dimethyl-1-(5-(3-(7-(piperidin-1-yl)-3H-imidazo[4,5-b]pyridin-2-yl)-1H-pyrazolo[4,3-b]pyridin-5-yl)pyridin-3-yl)methanamine], in test [1], the inhibition at 10 µM was 2.2% and the EC50 was more than 10 µM. The Emax in test [2] amounted to 44%.

Take `Cc1cn(-c2ccnc3[nH]c(-c4n[nH]c5ccc(-c6cncc(NC(=O)CC(C)C)c6)nc45)nc23)cn1` [Compound 198, 3-methyl-N-(5-(3-(7-(4-methyl-1H-imidazol-1-yl)-3H-imidazo[4,5-b]pyridin-2-yl)-1H-pyrazolo[4,3-b]pyridin-5-yl)pyridin-3-yl)butanamide]: in test [1], the inhibition at 10 µM is 27.6% and the EC50 was more than 10 µM. The Emax in test [2] was 27%.

Turning to `Cc1cn(-c2ccnc3[nH]c(-c4n[nH]c5ccc(-c6cncc(NC(=O)C(C)(C)C)c6)nc45)nc23)cn1` [Compound 204, N-(5-(3-(7-(4-methyl-1H-imidazol-1-yl)-3H-imidazo[4,5-b]pyridin-2-yl)-1H-pyrazolo[4,3-b]pyridin-5-yl)pyridin-3-yl)pivalamide], in test [1], the inhibition at 10 µM came out at 12.2% and the EC50 was more than 10 µM. In test [2], the Emax came to 70% and the EC50 was found to be 10 nM.

Consider `Cc1cn(-c2ccnc3[nH]c(-c4n[nH]c5ccc(-c6cncc(CN7CCCC7)c6)nc45)nc23)cn1` [Compound 210, 3-(7-(4-methyl-1H-imidazol-1-yl)-3H-imidazo[4,5-b]pyridin-2-yl)-5-(5-(pyrrolidin-1-ylmethyl)pyridin-3-yl)-1H-pyrazolo[4,3-b]pyridine], for which, in test [1], the inhibition at 10 µM was found to be 31.5% and the EC50 was more than 10 µM. Besides, the Emax in test [2] was 49%.

Turning to `Cc1cn(-c2ccnc3[nH]c(-c4n[nH]c5ccc(-c6cncc(NC(=O)C7CCC7)c6)nc45)nc23)cn1` [Compound 217, N-(5-(3-(7-(4-methyl-1H-imidazol-1-yl)-3H-imidazo[4,5-b]pyridin-2-yl)-1H-pyrazolo[4,3-b]pyridin-5-yl)pyridin-3-yl)cyclobutanecarboxamide], in test [1], the inhibition at 10 µM was found to be 13.9% and the EC50 is more than 10 µM. Moreover, in test [2], the Emax is 69% and the EC50 was 300 nM.

Consider `CN1CCN(c2ccnc3[nH]c(-c4n[nH]c5ccc(-c6cncc(N)c6)nc45)nc23)CC1` [Compound 227, 5-(3-(7-(4-methylpiperazin-1-yl)-3H-imidazo[4,5-b]pyridin-2-yl)-1H-pyrazolo[4,3-b]pyridin-5-yl)pyridin-3-amine], for which, in test [1], the inhibition at 10 µM is 8.2% and the EC50 is more than 10 µM. The Emax in test [2] is 47%.

`CC(C)C(=O)Nc1cncc(-c2ccc3[nH]nc(-c4nc5c(N6CCN(C)CC6)ccnc5[nH]4)c3n2)c1` [Compound 233, N-(5-(3-(7-(4-methylpiperazin-1-yl)-3H-imidazo[4,5-b]pyridin-2-yl)-1H-pyrazolo [4,3-b]pyridin-5-yl)pyridin-3-yl)isobutyramide]: in test [1], the inhibition at 10 µM came to 2.3% and the EC50 was more than 10 µM. In test [2], the Emax turned out to be 62% and the EC50 was 900 nM.

On to `c1cncc(-c2ccc3[nH]nc(-c4nc5cccnc5[nH]4)c3n2)c1` [Compound 256, 3-(3H-imidazo[4,5-b]pyridin-2-yl)-5-(pyridin-3-yl)-1H-pyrazolo[4,3-b]pyridine], for which, in test [1], the inhibition at 10 µM was 43.4% and the EC50 is more than 10 µM. In addition, in test [2], the Emax worked out at 74% and the EC50 came out at 10 nM.

With `CCC(=O)Nc1cncc(-c2ccc3[nH]nc(-c4nc5c(-c6ccsc6)ccnc5[nH]4)c3n2)c1` [Compound 281, N-(5-(3-(7-(thiophen-3-yl)-3H-imidazo[4,5-b]pyridin-2-yl)-1H-pyrazolo[4,3-b]pyridin-5-yl)pyridin-3-yl)propionamide], in test [1], the inhibition at 10 µM came to 28.3% and the EC50 was more than 10 µM. Moreover, the Emax in test [2] was found to be 38%.

On to `CN(C)c1cncc(-c2ccc3[nH]nc(-c4nc5c(-c6cccs6)ccnc5[nH]4)c3n2)c1` [Compound 343, N,N-dimethyl-5-(3-(7-(thiophen-2-yl)-3H-imidazo[4,5-b]pyridin-2-yl)-1H-pyrazolo [4,3-b]pyridin-5-yl)pyridin-3-amine], for which, in test [1], the inhibition at 10 µM came out at 31.7% and the EC50 is more than 10 µM. Moreover, in test [2], the Emax is 57% and the EC50 came to 900 nM.

With `CCNCc1cncc(-c2ccc3[nH]nc(-c4nc5c(-c6cc(F)cc(NCCN(C)C)c6)ccnc5[nH]4)c3n2)c1` [Compound 454, N^1-(3-(2-(5-(5-((ethylamino)methyl)pyridin-3-yl)-1H-pyrazolo[4,3-b]pyridin-3-yl)-3H-imidazo[4,5-b]pyridin-7-yl)-5-fluorophenyl)-N^2,N^2-dimethylethane-1,2-diamine], in test [1], the inhibition at 10 µM was 43.4% and the EC50 was more than 10 µM. In test [2], the Emax is 149% and the EC50 was found to be 21 nM.

Consider `CCCCC(=O)Nc1cncc(-c2ccc3[nH]nc(-c4nc5c(-c6cc(F)cc(NCCN(C)C)c6)ccnc5[nH]4)c3n2)c1` [Compound 467, N-(5-(3-(7-(3-((2-(dimethylamino)ethyl)amino)-5-fluorophenyl)-3H-imidazo[4,5-b]pyridin-2-yl)-1H-pyrazolo[4,3-b]pyridin-5-yl)pyridin-3-yl)pentanamide], for which, in test [1], the inhibition at 10 µM amounted to 34.1% and the EC50 is more than 10 µM. In test [2], the Emax is 71% and the EC50 was 10 nM.

On to `CCCC(=O)Nc1cncc(-c2ccc3[nH]nc(-c4nc5c(-c6cc(F)cc(CNS(C)(=O)=O)c6)ccnc5[nH]4)c3n2)c1` [Compound 493, N-(5-(3-(7-(3-fluoro-5-(methylsulfonamidomethyl)phenyl)-3H-imidazo[4,5-b]pyridin-2-yl)-1H-pyrazolo[4,3-b]pyridin-5-yl)pyridin-3-yl)butyramide], for which, in test [1], the inhibition at 10 µM stood at 14.8% and the EC50 is more than 10 µM. In test [2], the Emax came to 43%.
